Reference: the kinase profiling compilation of Christmann-Franck et al. (2016)
Values belong to the compound of their own block, whether it stands above or below them.

Columns and labels:
Experiment in all cases: KINOMEscan competition binding
Conditions in all cases: compound 10.0 µM
BMPR1A (human) = BMPR1A (human) (UniProt P36894)
PRKCD (human) = PRKCD (human) (UniProt Q05655)
[1] = test system: EGFR (human), P00533 [A750P; 747-749 del]
CAMK2D (human) = CAMK2D (human) (UniProt Q13557)
MAP4K5 (human) = MAP4K5 (human) (UniProt Q9Y4K4)
MAP4K5 (human), sequence (Q9Y4K4 whole entry, looked up): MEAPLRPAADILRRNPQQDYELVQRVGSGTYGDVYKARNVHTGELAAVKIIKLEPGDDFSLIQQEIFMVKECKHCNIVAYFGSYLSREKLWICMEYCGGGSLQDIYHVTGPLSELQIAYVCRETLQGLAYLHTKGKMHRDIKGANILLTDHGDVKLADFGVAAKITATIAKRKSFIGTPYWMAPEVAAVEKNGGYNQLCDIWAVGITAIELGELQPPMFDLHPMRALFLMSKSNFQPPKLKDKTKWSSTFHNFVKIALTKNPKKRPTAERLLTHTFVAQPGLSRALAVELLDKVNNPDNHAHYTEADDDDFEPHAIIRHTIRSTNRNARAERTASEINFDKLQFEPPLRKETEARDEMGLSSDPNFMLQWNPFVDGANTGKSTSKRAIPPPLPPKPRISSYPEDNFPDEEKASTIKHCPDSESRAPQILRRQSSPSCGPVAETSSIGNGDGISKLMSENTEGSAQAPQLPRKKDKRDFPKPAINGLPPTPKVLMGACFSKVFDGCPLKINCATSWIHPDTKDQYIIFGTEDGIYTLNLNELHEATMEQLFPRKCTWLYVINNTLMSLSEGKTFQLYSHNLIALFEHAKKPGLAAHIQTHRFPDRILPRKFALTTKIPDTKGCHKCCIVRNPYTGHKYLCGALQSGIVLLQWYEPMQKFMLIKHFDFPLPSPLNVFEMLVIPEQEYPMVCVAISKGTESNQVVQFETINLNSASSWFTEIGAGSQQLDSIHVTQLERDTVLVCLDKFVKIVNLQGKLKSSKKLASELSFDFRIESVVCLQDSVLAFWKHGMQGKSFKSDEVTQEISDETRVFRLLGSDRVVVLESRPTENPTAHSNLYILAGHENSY

[2] = test system: PIK3CA (human), P42336 [E545K]
PAK1 (human) = PAK1 (human) (UniProt Q13153)
ABL1 (human) = ABL1 (human) (UniProt P00519)
CAMK4 (human) = CAMK4 (human) (UniProt Q16566)
CAMK4 (human), sequence (Q16566 whole entry, looked up): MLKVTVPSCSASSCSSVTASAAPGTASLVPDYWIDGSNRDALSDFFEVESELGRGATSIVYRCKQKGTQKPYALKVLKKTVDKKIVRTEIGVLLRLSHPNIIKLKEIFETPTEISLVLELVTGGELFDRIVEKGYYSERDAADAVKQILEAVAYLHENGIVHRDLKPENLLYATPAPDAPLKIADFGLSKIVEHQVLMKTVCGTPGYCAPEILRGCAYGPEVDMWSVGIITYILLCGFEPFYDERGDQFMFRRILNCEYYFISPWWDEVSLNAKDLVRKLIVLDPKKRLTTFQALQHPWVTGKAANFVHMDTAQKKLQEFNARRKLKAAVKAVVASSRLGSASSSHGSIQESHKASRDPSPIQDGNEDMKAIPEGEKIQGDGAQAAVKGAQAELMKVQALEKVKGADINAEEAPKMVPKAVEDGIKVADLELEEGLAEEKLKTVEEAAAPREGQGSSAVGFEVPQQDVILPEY

NEK7 (human) = NEK7 (human) (UniProt Q8TDX7)
NEK7 (human), sequence (Q8TDX7 whole entry, looked up): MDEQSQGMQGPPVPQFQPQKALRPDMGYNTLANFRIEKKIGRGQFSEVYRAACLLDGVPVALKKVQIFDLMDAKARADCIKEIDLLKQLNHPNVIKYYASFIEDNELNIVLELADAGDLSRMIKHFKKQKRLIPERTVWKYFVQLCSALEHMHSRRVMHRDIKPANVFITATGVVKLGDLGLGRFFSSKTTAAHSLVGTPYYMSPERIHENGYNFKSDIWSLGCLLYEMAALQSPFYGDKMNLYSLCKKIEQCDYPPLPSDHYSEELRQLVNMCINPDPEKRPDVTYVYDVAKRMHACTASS

[3] = test system: ABL1 (human), P00519 [T315I]
ROS1 (human) = ROS1 (human) (UniProt P08922)
MYO3B (human) = MYO3B (human) (UniProt Q8WXR4)
MAPKAPK5 (human) = MAPKAPK5 (human) (UniProt Q8IW41)
MAPKAPK5 (human), sequence (Q8IW41 whole entry, looked up): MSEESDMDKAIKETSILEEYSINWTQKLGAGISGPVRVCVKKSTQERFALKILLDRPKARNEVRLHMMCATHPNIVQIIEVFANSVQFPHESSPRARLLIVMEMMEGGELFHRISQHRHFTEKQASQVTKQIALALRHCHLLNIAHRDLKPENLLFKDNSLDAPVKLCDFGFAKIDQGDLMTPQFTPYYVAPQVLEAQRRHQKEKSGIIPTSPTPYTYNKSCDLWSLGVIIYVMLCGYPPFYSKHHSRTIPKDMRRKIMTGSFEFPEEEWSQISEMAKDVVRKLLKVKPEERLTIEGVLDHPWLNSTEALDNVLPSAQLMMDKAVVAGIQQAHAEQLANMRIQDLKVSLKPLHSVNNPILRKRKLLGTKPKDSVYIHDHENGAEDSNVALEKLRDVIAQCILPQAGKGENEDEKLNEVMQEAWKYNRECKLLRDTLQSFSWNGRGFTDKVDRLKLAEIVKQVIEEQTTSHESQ

CDK11A (human) = CDK11A (human) (UniProt Q9UQ88)
CDK11A (human), sequence (Q9UQ88 whole entry, looked up): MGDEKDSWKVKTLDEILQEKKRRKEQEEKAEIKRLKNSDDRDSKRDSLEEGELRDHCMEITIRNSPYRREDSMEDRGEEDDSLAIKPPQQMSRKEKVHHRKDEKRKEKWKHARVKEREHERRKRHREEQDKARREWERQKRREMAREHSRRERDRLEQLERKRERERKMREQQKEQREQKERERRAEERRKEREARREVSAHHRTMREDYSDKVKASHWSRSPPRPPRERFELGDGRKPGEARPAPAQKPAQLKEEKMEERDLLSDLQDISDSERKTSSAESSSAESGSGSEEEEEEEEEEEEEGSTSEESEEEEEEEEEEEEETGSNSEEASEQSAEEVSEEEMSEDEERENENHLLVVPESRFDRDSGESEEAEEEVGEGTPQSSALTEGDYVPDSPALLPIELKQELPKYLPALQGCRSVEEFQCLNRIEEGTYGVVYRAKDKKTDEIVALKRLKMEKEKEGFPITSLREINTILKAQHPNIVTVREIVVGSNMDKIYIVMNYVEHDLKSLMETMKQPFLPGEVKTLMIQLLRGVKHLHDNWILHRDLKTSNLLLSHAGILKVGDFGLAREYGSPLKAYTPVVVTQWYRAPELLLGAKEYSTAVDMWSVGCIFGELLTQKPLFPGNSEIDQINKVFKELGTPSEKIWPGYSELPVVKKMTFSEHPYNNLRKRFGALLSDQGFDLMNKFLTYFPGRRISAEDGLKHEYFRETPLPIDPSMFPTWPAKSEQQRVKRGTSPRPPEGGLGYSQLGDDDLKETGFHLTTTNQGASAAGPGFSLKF

CAMK1 (human) = CAMK1 (human) (UniProt Q14012)
CAMK1 (human), sequence (Q14012 whole entry, looked up): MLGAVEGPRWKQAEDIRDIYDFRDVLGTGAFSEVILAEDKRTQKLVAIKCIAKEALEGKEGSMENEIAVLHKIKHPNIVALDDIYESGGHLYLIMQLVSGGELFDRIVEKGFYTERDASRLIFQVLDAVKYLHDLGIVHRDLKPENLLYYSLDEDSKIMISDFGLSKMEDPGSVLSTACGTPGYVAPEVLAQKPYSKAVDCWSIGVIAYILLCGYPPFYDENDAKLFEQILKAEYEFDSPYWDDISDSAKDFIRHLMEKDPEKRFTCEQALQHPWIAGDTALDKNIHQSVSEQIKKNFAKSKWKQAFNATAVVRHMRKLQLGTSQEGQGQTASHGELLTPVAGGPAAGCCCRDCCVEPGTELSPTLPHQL

PRKCH (human) = PRKCH (human) (UniProt P24723)
TEC (human) = TEC (human) (UniProt P42680)
EPHB2 (human) = EPHB2 (human) (UniProt P29323)
PRKACB (human) = PRKACB (human) (UniProt P22694)
MAPK7 (human) = MAPK7 (human) (UniProt Q13164)
NUAK2 (human) = NUAK2 (human) (UniProt Q9H093)
CDK18 (human) = CDK18 (human) (UniProt Q07002)
PRKX (human) = PRKX (human) (UniProt P51817)
MAP3K3 (human) = MAP3K3 (human) (UniProt Q99759)
WEE2 (human) = WEE2 (human) (UniProt P0C1S8)
LIMK2 (human) = LIMK2 (human) (UniProt P53671)
RPS6KA6 KD1 (human) = RPS6KA6 KD1 (human) (UniProt Q9UK32)
RPS6KA6 KD1 (human), sequence (Q9UK32 whole entry, looked up): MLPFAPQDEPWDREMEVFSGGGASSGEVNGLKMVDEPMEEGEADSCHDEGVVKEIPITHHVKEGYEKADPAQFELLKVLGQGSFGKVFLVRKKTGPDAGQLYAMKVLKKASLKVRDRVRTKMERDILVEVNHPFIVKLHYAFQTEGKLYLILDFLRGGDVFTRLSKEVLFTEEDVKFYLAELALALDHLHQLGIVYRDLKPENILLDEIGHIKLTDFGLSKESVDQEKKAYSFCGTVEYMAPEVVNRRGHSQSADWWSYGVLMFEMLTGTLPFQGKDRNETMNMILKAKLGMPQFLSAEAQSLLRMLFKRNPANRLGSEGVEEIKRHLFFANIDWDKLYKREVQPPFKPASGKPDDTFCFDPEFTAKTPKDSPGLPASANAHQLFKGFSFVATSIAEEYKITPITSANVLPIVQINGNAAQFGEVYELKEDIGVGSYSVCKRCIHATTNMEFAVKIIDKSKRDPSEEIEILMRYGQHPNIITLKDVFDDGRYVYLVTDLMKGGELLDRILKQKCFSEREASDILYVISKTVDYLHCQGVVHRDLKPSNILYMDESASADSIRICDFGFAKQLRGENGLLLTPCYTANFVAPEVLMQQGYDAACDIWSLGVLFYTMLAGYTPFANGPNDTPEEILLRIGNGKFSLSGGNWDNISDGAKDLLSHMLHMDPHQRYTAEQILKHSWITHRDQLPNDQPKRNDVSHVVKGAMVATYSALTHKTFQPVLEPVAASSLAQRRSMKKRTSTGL

PTK2 (human) = PTK2 (human) (UniProt Q05397)
NEK9 (human) = NEK9 (human) (UniProt Q8TD19)
MYO3A (human) = MYO3A (human) (UniProt Q8NEV4)
RIPK1 (human) = RIPK1 (human) (UniProt Q13546)
MARK4 (human) = MARK4 (human) (UniProt Q96L34)
PDPK1 (human) = PDPK1 (human) (UniProt O15530)
IRAK3 (human) = IRAK3 (human) (UniProt Q9Y616)
MET (human) = MET (human) (UniProt P08581)
CSK (human) = CSK (human) (UniProt P41240)
TNK2 (human) = TNK2 (human) (UniProt Q07912)
MAP2K6 (human) = MAP2K6 (human) (UniProt P52564)
TLK2 (human) = TLK2 (human) (UniProt Q86UE8)
NTRK2 (human) = NTRK2 (human) (UniProt Q16620)

BMPR1A (human), sequence (P36894 whole entry, looked up): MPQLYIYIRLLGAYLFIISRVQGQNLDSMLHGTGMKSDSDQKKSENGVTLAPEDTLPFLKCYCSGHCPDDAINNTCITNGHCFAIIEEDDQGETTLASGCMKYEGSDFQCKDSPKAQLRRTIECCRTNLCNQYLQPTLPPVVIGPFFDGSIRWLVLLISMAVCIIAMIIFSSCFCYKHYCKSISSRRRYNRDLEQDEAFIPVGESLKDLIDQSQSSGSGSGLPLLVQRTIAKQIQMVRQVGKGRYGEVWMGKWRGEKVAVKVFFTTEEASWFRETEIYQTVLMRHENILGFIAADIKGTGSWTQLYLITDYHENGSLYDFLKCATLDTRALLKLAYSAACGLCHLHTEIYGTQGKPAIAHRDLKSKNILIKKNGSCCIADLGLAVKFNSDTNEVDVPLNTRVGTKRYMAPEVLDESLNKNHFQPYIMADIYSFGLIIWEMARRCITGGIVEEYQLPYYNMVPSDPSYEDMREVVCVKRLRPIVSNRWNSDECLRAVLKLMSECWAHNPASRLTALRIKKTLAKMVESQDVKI
CAMK2D (human), sequence (Q13557 whole entry, looked up): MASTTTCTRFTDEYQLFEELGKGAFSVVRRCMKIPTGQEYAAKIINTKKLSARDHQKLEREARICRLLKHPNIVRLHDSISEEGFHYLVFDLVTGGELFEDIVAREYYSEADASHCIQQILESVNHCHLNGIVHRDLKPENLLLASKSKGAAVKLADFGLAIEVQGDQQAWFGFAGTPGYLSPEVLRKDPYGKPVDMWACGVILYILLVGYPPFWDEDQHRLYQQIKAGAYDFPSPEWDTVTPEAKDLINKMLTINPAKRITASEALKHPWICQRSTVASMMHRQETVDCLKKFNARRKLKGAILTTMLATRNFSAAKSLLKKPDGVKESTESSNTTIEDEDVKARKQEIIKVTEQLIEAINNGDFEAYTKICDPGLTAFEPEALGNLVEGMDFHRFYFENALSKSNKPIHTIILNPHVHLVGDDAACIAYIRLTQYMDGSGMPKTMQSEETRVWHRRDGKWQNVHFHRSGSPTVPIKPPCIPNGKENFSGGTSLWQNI

kinase still bound, per cent of control (BMPR1A (human)): 8% | kinase still bound, per cent of control (PRKCD (human)): 34%
SMILES: CS(=O)(=O)Nc1ccc(-c2cc(/C=C3\SC(=N)NC3=O)c[nH]c2=O)cc1

kinase still bound, per cent of control [1]: 9.4%
SMILES: Nc1cccc(-c2cc(/C=C3\SC(=O)NC3=O)c[nH]c2=O)c1

kinase still bound, per cent of control (CAMK2D (human)): 34%
SMILES: N=C1NC(=O)/C(=C/c2ccc(-c3ccc(C(N)=O)cc3O)o2)S1

kinase still bound, per cent of control [1]: 17% | kinase still bound, per cent of control (BMPR1A (human)): 0.95% | kinase still bound, per cent of control (MAP4K5 (human)): 12% | kinase still bound, per cent of control [2]: 22% | kinase still bound, per cent of control (PAK1 (human)): 9.4% | kinase still bound, per cent of control (ABL1 (human)): 34%
SMILES: CS(=O)(=O)Nc1ccc(-c2cncc(/C=C3\SC(=N)NC3=O)c2)cc1

kinase still bound, per cent of control [1]: 29% | kinase still bound, per cent of control [2]: 24%
SMILES: N=C1NC(=O)/C(=C/c2ccc(-c3ccc(F)cc3O)o2)S1

kinase still bound, per cent of control (CAMK4 (human)): 25% | kinase still bound, per cent of control (NEK7 (human)): 33%
SMILES: N=C1NC(=O)/C(=C/c2ccc(-c3csc4ccccc34)o2)S1

kinase still bound, per cent of control [3]: 100% | kinase still bound, per cent of control (ROS1 (human)): 21% | kinase still bound, per cent of control (MYO3B (human)): 89% | kinase still bound, per cent of control (MAPKAPK5 (human)): 100% | kinase still bound, per cent of control (CDK11A (human)): 80% | kinase still bound, per cent of control (CAMK1 (human)): 100% | kinase still bound, per cent of control (PRKCH (human)): 76% | kinase still bound, per cent of control (TEC (human)): 100% | kinase still bound, per cent of control (EPHB2 (human)): 68% | kinase still bound, per cent of control [1]: 49% | kinase still bound, per cent of control (PRKACB (human)): 100% | kinase still bound, per cent of control (CAMK2D (human)): 99% | kinase still bound, per cent of control (MAPK7 (human)): 30% | kinase still bound, per cent of control (BMPR1A (human)): 100% | kinase still bound, per cent of control (NUAK2 (human)): 100% | kinase still bound, per cent of control (CDK18 (human)): 100% | kinase still bound, per cent of control (CAMK4 (human)): 100% | kinase still bound, per cent of control (PRKX (human)): 83% | kinase still bound, per cent of control (MAP3K3 (human)): 93% | kinase still bound, per cent of control (WEE2 (human)): 100% | kinase still bound, per cent of control (NEK7 (human)): 81% | kinase still bound, per cent of control (MAP4K5 (human)): 91% | kinase still bound, per cent of control (LIMK2 (human)): 86% | kinase still bound, per cent of control (RPS6KA6 KD1 (human)): 100% | kinase still bound, per cent of control (PTK2 (human)): 85% | kinase still bound, per cent of control (MYO3A (human)): 74% | kinase still bound, per cent of control (RIPK1 (human)): 100% | kinase still bound, per cent of control (PRKCD (human)): 100% | kinase still bound, per cent of control (MARK4 (human)): 63% | kinase still bound, per cent of control (PDPK1 (human)): 79% | kinase still bound, per cent of control (IRAK3 (human)): 82% | kinase still bound, per cent of control (MET (human)): 90% | kinase still bound, per cent of control (CSK (human)): 95% | kinase still bound, per cent of control (TNK2 (human)): 20% | kinase still bound, per cent of control [2]: 97% | kinase still bound, per cent of control (MAP2K6 (human)): 65% | kinase still bound, per cent of control (TLK2 (human)): 96% | kinase still bound, per cent of control (PAK1 (human)): 92% | kinase still bound, per cent of control (ABL1 (human)): 100% | kinase still bound, per cent of control (NTRK2 (human)): 100%
SMILES: COc1cc(N2CCN(C)CC2)ccc1Nc1ncc2c(n1)N(C)c1ccccc1N(C)C2=O
kinase still bound, per cent of control (NEK9 (human)): 97%

kinase still bound, per cent of control [3]: 4.6% | kinase still bound, per cent of control (ABL1 (human)): 27%
SMILES: CS(=O)(=O)Nc1ccc(-c2ncc(/C=C3\SC(=N)NC3=O)s2)cc1

kinase still bound, per cent of control [3]: 46% | kinase still bound, per cent of control (ROS1 (human)): 82% | kinase still bound, per cent of control (MYO3B (human)): 100% | kinase still bound, per cent of control (MAPKAPK5 (human)): 100% | kinase still bound, per cent of control (CDK11A (human)): 82% | kinase still bound, per cent of control (CAMK1 (human)): 100% | kinase still bound, per cent of control (PRKCH (human)): 96% | kinase still bound, per cent of control (TEC (human)): 87% | kinase still bound, per cent of control (EPHB2 (human)): 82% | kinase still bound, per cent of control [1]: 33% | kinase still bound, per cent of control (PRKACB (human)): 100% | kinase still bound, per cent of control (CAMK2D (human)): 92% | kinase still bound, per cent of control (MAPK7 (human)): 100% | kinase still bound, per cent of control (BMPR1A (human)): 80% | kinase still bound, per cent of control (NUAK2 (human)): 71% | kinase still bound, per cent of control (CDK18 (human)): 86% | kinase still bound, per cent of control (CAMK4 (human)): 100% | kinase still bound, per cent of control (PRKX (human)): 100% | kinase still bound, per cent of control (MAP3K3 (human)): 86% | kinase still bound, per cent of control (WEE2 (human)): 93% | kinase still bound, per cent of control (NEK7 (human)): 70% | kinase still bound, per cent of control (MAP4K5 (human)): 98% | kinase still bound, per cent of control (LIMK2 (human)): 100% | kinase still bound, per cent of control (RPS6KA6 KD1 (human)): 93% | kinase still bound, per cent of control (PTK2 (human)): 73% | kinase still bound, per cent of control (MYO3A (human)): 80% | kinase still bound, per cent of control (RIPK1 (human)): 100% | kinase still bound, per cent of control (PRKCD (human)): 100% | kinase still bound, per cent of control (MARK4 (human)): 84% | kinase still bound, per cent of control (PDPK1 (human)): 82% | kinase still bound, per cent of control (IRAK3 (human)): 79% | kinase still bound, per cent of control (MET (human)): 82% | kinase still bound, per cent of control (CSK (human)): 100% | kinase still bound, per cent of control (TNK2 (human)): 56% | kinase still bound, per cent of control [2]: 100% | kinase still bound, per cent of control (MAP2K6 (human)): 97% | kinase still bound, per cent of control (TLK2 (human)): 100% | kinase still bound, per cent of control (PAK1 (human)): 82% | kinase still bound, per cent of control (ABL1 (human)): 24% | kinase still bound, per cent of control (NTRK2 (human)): 2.4%
SMILES: COc1cc(N2CCN(C)CC2)ccc1Nc1ncc2c(n1)Nc1ccccc1NC2=O
kinase still bound, per cent of control (NEK9 (human)): 87%

kinase still bound, per cent of control (MAPKAPK5 (human)): 12% | kinase still bound, per cent of control (CDK11A (human)): 0.45% | kinase still bound, per cent of control (CAMK1 (human)): 8.4% | kinase still bound, per cent of control (CAMK2D (human)): 7.6% | kinase still bound, per cent of control (BMPR1A (human)): 33% | kinase still bound, per cent of control (NEK7 (human)): 15% | kinase still bound, per cent of control (MYO3A (human)): 24% | kinase still bound, per cent of control (IRAK3 (human)): 11% | kinase still bound, per cent of control (CSK (human)): 12% | kinase still bound, per cent of control (TLK2 (human)): 23%
SMILES: N=C1NC(=O)/C(=C/c2ccc(-c3cncc4ccccc34)o2)S1

kinase still bound, per cent of control (MAPK7 (human)): 0.1% | kinase still bound, per cent of control (RPS6KA6 KD1 (human)): 30% | kinase still bound, per cent of control (MET (human)): 4.5%
SMILES: CN1C(=O)[C@H]2CCC[C@H]2N(C2CCCC2)c2nc(Nc3ccc(C(N)=O)cc3)ncc21
kinase still bound, per cent of control (NEK9 (human)): 8.9%

kinase still bound, per cent of control (NUAK2 (human)): 26%
SMILES: N=C1NC(=O)/C(=C/c2c[nH]c(=O)c(-c3ccc(N4CCNCC4)nc3)c2)S1

kinase still bound, per cent of control (ROS1 (human)): 34% | kinase still bound, per cent of control (MYO3B (human)): 26% | kinase still bound, per cent of control (CDK11A (human)): 2% | kinase still bound, per cent of control (CAMK1 (human)): 27% | kinase still bound, per cent of control (CAMK2D (human)): 32% | kinase still bound, per cent of control (NEK7 (human)): 17% | kinase still bound, per cent of control (PTK2 (human)): 28% | kinase still bound, per cent of control (MYO3A (human)): 19% | kinase still bound, per cent of control (IRAK3 (human)): 7.9% | kinase still bound, per cent of control (CSK (human)): 33% | kinase still bound, per cent of control (TNK2 (human)): 34% | kinase still bound, per cent of control (MAP2K6 (human)): 24% | kinase still bound, per cent of control (TLK2 (human)): 26%
SMILES: O=C1NC(=S)S/C1=C\c1ccc(-c2cncc3ccccc23)o1

kinase still bound, per cent of control [2]: 21%
SMILES: N=C1NC(=O)/C(=C/c2ccc(-c3ccccc3O)o2)S1

kinase still bound, per cent of control (NUAK2 (human)): 32%
SMILES: CSC1=NC(=O)/C(=C/c2c[nH]c(=O)c(-c3ccc(NS(C)(=O)=O)cc3)c2)S1
